Assay results published in patent US3954776A, “1-[Methylated piperidino(and pyrrolidin-1-yl)]-3-(substituted phenoxy)-2propanols” (Yoshitomi Pharmeceutical Industries, Ltd., priority 1973, dated 1976).
Converted amounts (≈) assume the structure as drawn. Structures can show the parent of a compound that is named as a salt.

Columns and labels:
[1] = system: isolated guinea pig atria; assay: Antiarrhythmic action on functional refractory period; type: cell-based; conditions: method of Zetler et al; for EC50: Cavia porcellus
Method: 1. Antiarrhythmic action on functional refractory period
The test was performed essentially by the method described by G. Zetler et al in "Naunyn-Schmiedebergs Archiv fur Pharmakologie", vol. 271, 335-345 (1971), using isolated guinea pig atria.

[2] = system: guinea pig; assay: Surface anaesthetic action; type: in vivo; conditions: relative to procaine = 1; guinea pig (male, about 400 g); method of Chance et al
Method: 3. Surface anaesthetic action
The test was performed essentially by the method described by M.R.A. Chance et al in "Journal of Pharmacology and Experimental Therapeutics", vol. 82, 203-210 (1944), using guinea pig (male, about 400 g).

[3] = system: guinea pig; assay: Infiltration anaesthetic action; type: in vivo; conditions: relative to procaine = 1; guinea pig (male, about 400 g); method of Bulbring et al
Method: 2. Infiltration anaesthetic action
The test was performed essentially by the method described by E. Bulbring et al in "Journal of Pharmacology and Experimental Therapeutics", vol. 85, 78-84 (1945), using guinea pig (male, about 400 g).

SMILES | EC50 [1] [µg/mL] | Efficiency Rate (procaine = 1), surface anaesthetic action [2] | Efficiency Rate (procaine = 1), infiltration anaesthetic action [3] | EC50 (antiarrhythmic action on functional refractory period) [1]
CC1(C)CCCC(C)(C)N1CC(O)COc1ccccc1OCC1CCCO1 (centres unmarked) [B] | 17 (≈ 43.4 µM) | 26.7 |  | 
CC1(C)CCCC(C)(C)N1CC(O)COc1ccccc1OCc1ccco1 (centres unmarked) [H] |  |  | 51.7 | 
CC1CCCC(C)N1CC(O)COc1ccccc1Cc1cccs1 (centres unmarked) [I] |  | 27.1 | 98.7 | 
CC1(C)CCCC(C)(C)N1CC(O)COc1ccccc1Cc1ccccn1 (centres unmarked) [E] | 22 (≈ 57.5 µM) |  |  | 
CC1(C)CCCC(C)(C)N1CC(O)COc1ccccc1Oc1ccccn1 (centres unmarked) [F] | 12 (≈ 31.2 µM) |  |  | 
COCCOc1ccccc1OCC(O)CN1C(C)(C)CCCC1(C)C (centres unmarked) [A] | 24 (≈ 65.7 µM) |  |  | 
CC1CCCCN1CC(O)COc1ccccc1Cc1cccs1 (centres unmarked) [K] |  |  | 167.5 | 
Cc1ccccc1OCC(O)CN1C(C)(C)CCC1(C)C (centres unmarked) [Lotucaine, 1-(2,2,5,5-tetramethylpyrrolidin-1-yl)-3-(o-tolyloxy)-2-propanolhydrochloride, reference compound] |  | 11.1 | 11.3 | no effect
CSCCOc1ccccc1OCC(O)CN1C(C)(C)CCCC1(C)C (centres unmarked) [D] | 15 (≈ 39.3 µM) | 27.2 |  | 
CC1(C)CCC(C)(C)N1CC(O)COc1ccccc1OCc1ccco1 (centres unmarked) [C] | 13 (≈ 34.8 µM) | 30.0 |  | 
CC1CCCC(C)N1CC(O)COc1ccccc1OCc1cccs1 (centres unmarked) [G] | 18 (≈ 47.9 µM) | 23.6 |  | 
CC1CCCCN1CC(O)COc1ccc(Cc2cccs2)cc1 (centres unmarked) [L] |  | 23.9 |  | 
CC1(C)CCCC(C)(C)N1CC(O)COc1ccccc1Cc1cccs1 (centres unmarked) [J] |  |  | 35.6 | 
